From patent US11667602B2, “Compounds and their use” (AstraZeneca AB, priority 2020, dated 2023)
Converted amounts (≈) assume the structure as drawn.

Experiments:
[1] = Human Hepatocyte Stability (Test D); type: in vitro ADME; conditions: human, cryopreserved pooled human hepatocytes (LiverPool 10-Donor), geometric mean if run multiple times
Outline: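 Pooled 10-donor cryopreserved human hepatocytes (≥80% viable) in L-15 medium at 0.25×10^6 cells per 0.25 mL well. Compound added from 100 μM acetonitrile solution; incubated at 37 °C with shaking, acetonitrile-quenched, LC-MS analysed. Clint (μL/min/10^6 cells) from ln % parent vs time slope; geometric mean of repeat runs.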

[2] = Solubility (Test F); type: physicochemical; conditions: arithmetic mean if run multiple times
Description: The assay was conducted according to the Solubility Assay described in pages 164-167 of Wernevik, J. et al., “A Fully Integrated Assay Panel for Early Drug Metabolism and Pharmacokinetics Profiling”, Assay and Drug Development Technologies, 2020, 18(4), 157-179. Data are reported in Table 36 as solubility ([…]. Where the assay was run multiple times for the same compound, the arithmetic mean is reported.

[3] = target: T1, human RXFP1 (Homo sapiens, UniProt Q9HBX9); assay: RXFP1 Hu cAMP (Test A); type: cell-based; set-up: expressed in transfected cells; host or cells: Jump-In T-REx CHO-K1 cells (ThermoFisher), induced with 10 ng/ml doxycycline for 24 h; conditions: RXFP1 Hu cAMP; for EC50: read-out: Test A EC50
T1 sequence (Q9HBX9 1-757): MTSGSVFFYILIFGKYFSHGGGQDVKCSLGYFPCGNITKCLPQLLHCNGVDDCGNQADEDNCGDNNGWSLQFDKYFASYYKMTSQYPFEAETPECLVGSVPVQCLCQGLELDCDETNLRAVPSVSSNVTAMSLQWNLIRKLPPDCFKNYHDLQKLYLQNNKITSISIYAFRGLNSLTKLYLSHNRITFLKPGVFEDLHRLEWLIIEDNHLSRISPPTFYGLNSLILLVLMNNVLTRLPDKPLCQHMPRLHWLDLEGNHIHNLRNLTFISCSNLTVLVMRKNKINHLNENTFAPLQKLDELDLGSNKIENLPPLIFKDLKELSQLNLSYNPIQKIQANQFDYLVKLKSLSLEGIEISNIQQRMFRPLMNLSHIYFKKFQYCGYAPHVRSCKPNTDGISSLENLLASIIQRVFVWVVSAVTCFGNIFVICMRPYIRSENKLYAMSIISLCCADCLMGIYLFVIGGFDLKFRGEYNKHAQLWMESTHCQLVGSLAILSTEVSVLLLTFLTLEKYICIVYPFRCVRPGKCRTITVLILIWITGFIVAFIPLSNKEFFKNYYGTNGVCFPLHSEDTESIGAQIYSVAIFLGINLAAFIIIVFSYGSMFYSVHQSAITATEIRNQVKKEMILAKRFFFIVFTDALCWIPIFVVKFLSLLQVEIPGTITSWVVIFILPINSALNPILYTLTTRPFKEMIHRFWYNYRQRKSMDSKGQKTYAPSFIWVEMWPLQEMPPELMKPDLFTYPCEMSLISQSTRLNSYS
Outline: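 Competitive HTRF cAMP readout (2 h, room temperature) in CHO-K1 cells stably expressing human RXFP1, induced with 10 ng/ml doxycycline for 24 h; IBMX 0.5 mM final.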

| SMILES | hepatocyte CLint at 1 µM [1] [µL/min/1e6 cells] | solubility [2] [µM] | Test A Sinf [3] [%] | EC50 [3] [nM] |
| --- | --- | --- | --- | --- |
| COc1cc(F)c(O[C@H]2CC[C@@](C)(C(=O)O)CC2)cc1C(=O)N[C@@H]1[C@H]2CC[C@H](C2)[C@@H]1C(=O)Nc1cccc(S(=O)(=O)C(F)(F)F)c1 [Example 208, (1S,4s)-4-(2-Fluoro-4-methoxy-5-(((1S,2R,3S,4R)-3-((3-((trifluoromethyl)sulfonyl)phenyl)carbamoyl)bicyclo[2.2.1]heptan-2-yl)carbamoyl)phenoxy)-1-methylcyclohexane-1-carboxylic acid] | 15 | 130 (≈ 87.2 µg/mL) | 108 | < 2 |
| COc1cc(F)c(O[C@H]2CC[C@@](C)(C(=O)O)CC2)cc1C(=O)N[C@@H]1[C@H]2CC[C@H](C2)[C@@H]1C(=O)Nc1ccc(F)c(S(F)(F)(F)(F)F)c1 [Example 353] | 21 | 45 (≈ 30.7 µg/mL) | 114 | 0.41 |
| COc1cc(F)c(O[C@H]2CC[C@@H](C(=O)O)CC2)cc1C(=O)N[C@@H]1[C@H]2CC[C@H](C2)[C@@H]1C(=O)Nc1ccc(F)c(S(F)(F)(F)(F)F)c1 [Example 433] | 14 | 240 (≈ 160 µg/mL) | 109 | 5.3 |
| COc1cc(F)c(-c2ccc(C(=O)O)cc2)cc1C(=O)N[C@H]1[C@@H](C(=O)Nc2cccc(S(=O)(=O)C(F)(F)F)c2)[C@@H]2C=C[C@H]1C2 (single isomer, unassigned) [Example 552] | 12 | > 1000 | 98 | 140 |
